Assay results from US20050171358A1 (priority 2002, published 2005).

How the values were obtained:
Pyricularia oryzae = assay type: in vivo; details: 200 ppm spray on rice (Koshihikari, 3 leaf stage), inoculated next day; lesion numbers on third leaves after 7 days in green house, graded by Table 5
[1] = test system: Colletotrichum lagenarium; details: 200 ppm spray on cucumber (3 leaf stage), inoculated next day; lesion numbers on first and second leaves after 7 days in green house, graded by Table 5

Compound	Evaluation (effect for rice blast) (Pyricularia oryzae)	Evaluation (effect for cucumber anthracnose) [1]
CC(c1ccccc1)c1cc(CNC(=O)c2ccccc2)on1 (stereo not shown) [IV-29, N-{[3-(1-phenylethyl)-5-isoxazolyl]methyl}benzamide]	3 (6˜10)	3 (6˜10)
O=C(NCc1cc(CCc2ccccc2)no1)c1ccccc1 [IV-33, N-{[3-(2-phenylethyl)-5-isoxazolyl]methyl}benzamide]	5 (0)	5 (0)
COc1ccc(C(=O)NCc2cc(CCc3ccccc3)no2)cc1 [IV-34, N-{[3-(2-phenylethyl)-5-isoxazolyl]methyl}-4-methoxybenzamide]	5 (0)	5 (0)
Cc1ccc(C(=O)NCc2cc(CCc3ccccc3)no2)cc1 [IV-35, N-{[3-(2-phenylethyl)-5-isoxazolyl]methyl}-4-methylbenzamide]	5 (0)	5 (0)
Cc1ccc(C(=O)NCc2cc(CSc3ccccc3)no2)cc1 [IV-40, N-[(3-phenylthiomethyl-5-isoxazolyl)methyl]-4-methylbenzamide]	3 (6˜10)	2 (11˜20)
O=C(NCc1cc(COc2ccccc2)no1)c1ccccc1 [IV-44, N-[(3-phenoxymethyl-5-isoxazolyl)methyl]benzamide]	5 (0)	5 (0)
COc1ccc(C(=O)NCc2cc(COc3ccccc3)no2)cc1 [IV-45, N-[(3-phenyloxymethyl-5-isoxazolyl)methyl]-4-methoxy benzamide]	5 (0)	5 (0)
Cc1ccc(C(=O)NCc2cc(COc3ccccc3)no2)cc1 [IV-46, N-[(3-phenoxymethyl-5-isoxazolyl)methyl]-4-methylbenzamide]	5 (0)	5 (0)
COc1ccc(C(=O)NCc2cc(COc3ccccc3C)no2)cc1 [IV-47, N-{[3-(2-methylphenyl)oxymethyl-5-isoxazolyl]methyl}-4-methoxy benzamide]	5 (0)	5 (0)
COc1ccc(C(=O)NCc2cc(COc3cccc(C)c3)no2)cc1 [IV-48, N-{[3-(3-methylphenyl)oxymethyl-5-isoxazolyl]methyl}-4-methoxybenzamide]	3 (6˜10)	2 (11˜20)
Cc1ccc(C(=O)NCc2cc(COc3cccc(C)c3)no2)cc1 [IV-49, N-{[3-(3-methylphenyl)oxymethyl-5-isoxazolyl]methyl}-4-methylbenzamide]	2 (11˜20)	2 (11˜20)
COc1ccc(C(=O)NCc2cc(COc3ccc(C)cc3)no2)cc1 [IV-50, N-{[3-(4-methylphenyl)oxymethyl-5-isoxazolyl]methyl}-4-methoxybenzamide]	5 (0)	4 (1˜5)
COc1ccc(C(=O)NCc2cc(COc3cccc(C#N)c3)no2)cc1 [IV-52, N-{[3-(3-cyanophenyl)oxymethyl-5-isoxazolyl]methyl}-4-methoxybenzamide]	3 (6˜10)	2 (11˜20)
COc1ccc(C(=O)NCc2cc(COc3ccc(C#N)cc3)no2)cc1 [IV-53, N-([3-(4-cyanophenyl)oxymethyl-5-isoxazolyl]methyl}-4-methoxybenzamide]	5 (0)	5 (0)
COc1ccc(C(=O)NCc2cc(COc3ccccc3OC)no2)cc1 [IV-54, N-{[3-(2-methoxyphenyl)oxymethyl-5-isoxazolyl]methyl}-4-methoxybenzamide]	3 (6˜10)	4 (1˜5)
COc1ccc(C(=O)NCc2cc(COc3cccc(OC)c3)no2)cc1 [IV-55, N-{[3-(3-methoxyphenyl)oxymethyl-5-isoxazolyl]methyl}-4-methoxybenzamide]	4 (1˜5)	4 (1˜5)
COc1ccc(OCc2cc(CNC(=O)c3ccc(OC)cc3)on2)cc1 [IV-56, N-{[3-(4-methoxyphenyl)oxymethyl-5-isoxazolyl]methyl}-4-methoxybenzamide]	3 (6˜10)	2 (11˜20)
COc1ccc(C(=O)NCc2cc(COc3ccccc3F)no2)cc1 [IV-57]	5 (0)	5 (0)
COc1ccc(C(=O)NCc2cc(COc3cccc(F)c3)no2)cc1 [IV-58, N-{[3-(3-fluorophenyl)oxymethyl-5-isoxazolyl]methyl}-4-methoxybenzamide]	5 (0)	5 (0)
COc1ccc(C(=O)NCc2cc(COc3ccc(F)cc3)no2)cc1 [IV-59, N-{[3-(4-fluorophenyl)oxymethyl-5-isoxazolyl]methyl}-4-methoxybenzamide]	5 (0)	5 (0)
COc1ccc(C(=O)NCc2cc(COc3ccc([N+](=O)[O-])cc3)no2)cc1 [IV-60, N-{[3-(4-nitrophenyl)oxymethyl-5-isoxazolyl]methyl}-4-methoxybenzamide]	5 (0)	5 (0)
COc1ccc(C(=O)NCc2cc(COc3ccc(-n4cncn4)cc3)no2)cc1 [IV-73]	2 (11˜20)	3 (6˜10)
COc1ccc(C(=O)NCc2cc(CON=Cc3ccccc3)no2)cc1 [IV-74, {3-[(4-methoxyphenyl)carbonylaminomethyl]-5-isoxazolyl]methoxyiminobenzyl]	4 (1˜5)	3 (6˜10)
CO/N=C/c1ccc(OCc2cc(CNC(=O)c3ccc(OC)cc3)on2)cc1 [IV-75]	2 (11˜20)	3 (6˜10)
COc1ccc(C(=O)NCc2cc(COc3c(C)cccc3C)no2)cc1 [IV-80, N-{[3-(2,6-dimethylphenyl)oxymethyl-5-isoxazolyl]methyl}-4-methoxybenzamide]	4 (1˜5)	4 (1˜5)
COc1ccc(C(=O)NCc2cc(C(=O)Nc3ccccc3)no2)cc1 [IV-84, N-[(3-phenylaminocarbonyl-5-isoxazolyl)methyl]-4-methoxybenzamide]	5 (0)	5 (0)
